Values joined by “and” are separate entries in the source; they are usually repeats but may differ in a detail not shown here. Equal entries are not always repeated.
Legend:
[1] = Batch release QC / patient dose batch data; assay type: physicochemical; conditions: patient dose batches
Experimental: In another embodiment, the radioactivity is measured in a dose calibrator. The radioactive amount of [^177Lu]Lu-PSMA I&T is determined when the dose is dispensed.
In one embodiment, bacterial endotoxin content is determined for each batch before release using a PTS-tester (Ph Eur method D) and sterility is determined according to Ph Eur.
The specifications listed were used as release parameters except for sterility testing. Sterility was tested on all batches post-release.

[2] = Radiochemical purity of ^177Lu-PSMA I&T by HPLC in different formulation compositions, hours post EOS (Example 3); assay type: physicochemical
Experimental: Product formulation details are described in Table 6.
Radiochemical purity of each solution was followed by HPLC up to 71-93 hours post-radiolabeling.

[3] = Biodistribution: SPECT/CT time-activity curves (fraction of injected activity), whole-body half-lives; assay type: in vivo, human; conditions: Cycle 1
Experimental: This Example presents the biodistribution, dosimetry, and pharmacokinetics (PK) results of a PK/Dosimetry sub-study performed as part of a Phase III trial. Twenty-seven (27) patients were administered a target activity of 7.4±10% GBq of ^177Lu-PSMA-I&T and underwent single photon emission computed tomography (SPECT)/computed tomography (CT) imaging at four timepoints (4 h, 24 h, 48 h, and 168 h). Image data was analysed to compute time-activity curves (TACs) and subsequently time-integrated activity coefficients (TIACs) in each organ of interest and in organs showing appreciable and meaningful ^177Lu-PSMA-I&T activity. Organ Level Internal Dose Assessment (OLINDA 2.2.3) was used to compute organ and whole body absorbed radiation doses for each patient.
All participating sites underwent a rigorous site setup process during which all dose calibrators, scanners, and gamma counters used in the sub-study were calibrated. Sites were allowed to enroll patients in the sub-study only after the completion and approval of all site setup processes by Invicro. Patients underwent SPECT/CT imaging, with anatomical coverage typically extending from the salivary glands to the pelvis, following the administration of a targeted 7.4±10% GBq of ^177Lu-PSMA-I&T at cycle 1. SPECT/CT imaging was performed at four timepoints: 4 h, 24 h, 48 h, and 168 h post-injection. Additionally, a subset of patients imaged at Cycle 1 (16 out of 27), were also imaged at Cycle 3 (Table 2).
Volume of interest (VOI) (kidneys, bladder, liver, lumbar vertebrae L2-L4, lacrimal glands, salivary glands [parotid and submandibular glands], and whole body) were delineated on each dataset by a trained image analyst. […] Organs were segmented either by drawing the entire contour of the organ, or by placing a sphere in a representative region of the organ and then multiplying by the organ's effective mass (based on patient's height and weight). Segmentation methods for each organ are specified in Table 3 and were consistently applied to each patient.
Clearance of the radiopharmaceutical was derived from a data-appropriate fit of each organ's TAC. Depending on the TAC's shape, the data was fitted with the sum of one, two, or three exponentials, or using a rise and fall model. Fitting was performed with in-house Python software. TIACs were calculated through analytical integration of the curve fit extrapolated to infinity. […] A whole-body TAC was derived from delineating the imaged body. The remainder activity was determined by subtracting the cumulative organ TIACs from the whole body TIAC.
Note: the time-activity curves in these figures are not decay-corrected to time of injection.
The whole-body time-activity curves were fitted with bi-exponential equation and the two components were used for the distribution and elimination half-life.

[4] = bi-exponential fit of whole-body time-activity curves, excluding patient 42-030

Compound: O=C([O-])CC[C@H](NC(=O)N[C@@H](CCCCNC(=O)CCCCCCC(=O)NCCCC[C@@H](NC(=O)[C@@H](Cc1ccccc1)NC(=O)[C@@H](Cc1ccc(O)c(I)c1)NC(=O)CC[C@H](C(=O)[O-])N1CCN(CC(=O)[O-])CCN(CC(=O)[O-])CCN(CC(=O)[O-])CC1)C(=O)[O-])C(=O)[O-])C(=O)[O-].[177Lu+3].[H+].[H+].[H+].[H+].[H+] [Lu-177 PSMA I&T]
- Measured PSMA Sum [1]: 5.0 µg/mL
- Theoretical PSMA Sum [1]: 5.9 µg/mL and 6.4 µg/mL

Compound: O=C([O-])CC[C@H](NC(=O)N[C@@H](CCCCNC(=O)CCCCCCC(=O)NCCCC[C@@H](NC(=O)[C@@H](Cc1ccccc1)NC(=O)[C@@H](Cc1ccc(O)c(I)c1)NC(=O)CC[C@H](C(=O)[O-])N1CCN(CC(=O)[O-])CCN(CC(=O)[O-])CCN(CC(=O)[O-])CC1)C(=O)[O-])C(=O)[O-])C(=O)[O-].[177Lu+3].[H+].[H+].[H+].[H+].[H+] [^177Lu-PSMA I&T, (3S,7S,26R,29R,32R,37R)-29-benzyl-32-(4-hydroxy-3-iodobenzyl)-5,13,20,28,31,34-hexaoxo-37-(4,7,10-tris(carboxymethyl)-1,4,7,10-tetraazacyclododecan-1-yl)-4,6,12,21,27,30,33-heptaazaheptatriacontane-1,3,7,26,37-pentacarboxylic acid; lutetium-177 (III)]
- radiochemical purity as measured by HPLC ([2]; 10 ml high RAC formulation, 42.5 mg/ml ascorbic acid, 0 hours post EOS): at least 99%
- radiochemical purity as measured by HPLC ([2]; 10 ml high RAC formulation, 42.5 mg/ml ascorbic acid, 46 hours post EOS): at least 93.3%
- radiochemical purity as measured by HPLC ([2]; 20 ml low RAC formulation, 31 mg/ml ascorbic acid, 0 hours post EOS): at least 99.1%
- adequate radiochemical stability (radiochemical purity at least 95%) ([2]; about 31 mg/ml ascorbic acid, pH about 4.5, radioactivity concentration about 640 MBq/ml or below): four
- decrease in radiochemical purity over time at pH 4.5 compared with pH 7 ([2]; high RAC solutions): two times slower
- radiochemical purity ([2]; high radioactivity concentration, pH 4.5, 42.5 mg/ml ascorbic acid, 24 hours post EOS): 98.0%
- radiochemical purity ([2]; high radioactivity concentration, pH 4.5, 42.5 mg/ml ascorbic acid, 46 hours post EOS): 96.7%
- radiochemical purity ([2]; high radioactivity concentration, pH 4.5, 42.5 mg/ml ascorbic acid, 67 hours post EOS): 95.3%
- radiochemical purity ([2]; high radioactivity concentration, pH 4.5, 42.5 mg/ml ascorbic acid, 71 hours post EOS): 95.2%
- radiochemical stability (radiochemical purity) ([2]; low RAC solution, pH 4.5, ascorbic acid 31 mg/ml, for 72 hours or longer): above 95.0%
- radiochemical purity ([2]; low radioactivity concentration 579 MBq/ml, pH 4.5, 21 mg/ml ascorbic acid, 92 hours post EOS): 96.0%
- radiochemical purity ([2]; low radioactivity concentration 588.5 MBq/ml, pH 4.5, 31 mg/ml ascorbic acid, 20 hours post EOS): 98.7%
- radiochemical purity ([2]; low radioactivity concentration 588.5 MBq/ml, pH 4.5, 31 mg/ml ascorbic acid, 44 hours post EOS): 98.0%
- radiochemical purity ([2]; low radioactivity concentration 588.5 MBq/ml, pH 4.5, 31 mg/ml ascorbic acid, 69 hours post EOS): 97.4%
- radiochemical purity ([2]; low radioactivity concentration 588.5 MBq/ml, pH 4.5, 31 mg/ml ascorbic acid, 93 hours post EOS): 97.0%
- radiochemical purity ([2]; low radioactivity concentration 626 MBq/ml, pH 5.0, 31 mg/ml ascorbic acid, 0 hours post EOS): 99.2%
- radiochemical purity ([2]; low radioactivity concentration 626 MBq/ml, pH 5.0, 31 mg/ml ascorbic acid, 25 hours post EOS): 98.4%
- radiochemical purity ([2]; low radioactivity concentration 626 MBq/ml, pH 5.0, 31 mg/ml ascorbic acid, 47 hours post EOS): 97.3%
- radiochemical stability (radiochemical purity) ([2]; lowered formulation radioactivity concentration, for 72 hours, experiments conducted previously): above 95.0%
- whole body mean activity retention at 4 h ([3]; averaged across patients excluding 42-030): 44%±13%
- whole-body distribution half-life (mean) [3, 4]: 2.16 ± 1.30 h
- whole-body elimination half-life (mean) [3, 4]: 46.29 ± 23.83 h
- whole body activity retention at 4 h, max ([3]; excluding 42-030): 78%
- whole body activity retention at 4 h, min ([3]; excluding 42-030): 24%
- route of excretion ([3]; visible accumulation in the urinary bladder): primarily excreted through the urine

From patent US20250032651A1, “[177LU] LUTETIUM-PSMA I&T COMPOSITION AND DOSIMETRY, KIT, METHOD OF MAKING, AND METHOD OF USING THEREOF” (Curium US LLC, priority 2022, published 2025)
